What was measured:
MMP-14 = target: T1, MMP-14 (Homo sapiens, UniProt P50281); assay: In vitro MMP inhibition, Ki determination (fluorogenic substrate II); type: biochemical; settings: value outside parentheses; read-out: MMP-14 Ki
T1 construct: The catalytic domain enzyme was expressed in E. coli inclusion bodies, solubilized in urea; made in house
Method in brief: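 Apparent Ki was fitted with Morrison's equation from reaction rates at a single low enzyme level. Enzyme was APMA- or trypsin-activated refolded MMP-14 catalytic domain, buffered at pH 7.5 with 10 mM CaCl2.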

MMP-1 = target: T2, MMP-1 (Homo sapiens, UniProt P03956); assay: as above; type: biochemical; settings: value outside parentheses; read-out: MMP-1 Ki
T2 construct: made in house; host or cells: MMP-1-transfected HT-1080 cells (spent media)
T2 sequence (P03956 100-469): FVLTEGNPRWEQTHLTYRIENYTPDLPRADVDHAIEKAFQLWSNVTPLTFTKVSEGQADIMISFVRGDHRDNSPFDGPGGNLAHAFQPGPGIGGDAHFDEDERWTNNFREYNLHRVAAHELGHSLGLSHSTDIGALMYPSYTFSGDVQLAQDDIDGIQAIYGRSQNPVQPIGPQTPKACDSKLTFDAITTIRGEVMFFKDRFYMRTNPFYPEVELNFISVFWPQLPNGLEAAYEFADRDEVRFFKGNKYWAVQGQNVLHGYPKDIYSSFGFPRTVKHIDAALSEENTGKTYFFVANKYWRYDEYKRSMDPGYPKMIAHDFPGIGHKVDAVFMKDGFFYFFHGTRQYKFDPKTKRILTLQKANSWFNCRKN

Row | Compound | Ki (MMP-14) [µM] | Ki (MMP-1) [µM]
1 | CCC=C1CCN(S(=O)(=O)C2(C(=O)NO)CCOCC2)CC1 [Example 374] | 0.195 | 0.303
2 | O=C(NO)C1(S(=O)(=O)N2CCC(COCC(F)(F)C(F)F)CC2)CCOCC1 [Example 375] | 2.86 | > 10
3 | O=C(NO)C1(S(=O)(=O)N2CCC(COCC(F)(F)C(F)(F)F)CC2)CCOCC1 [Example 376] | 3.12 | > 10
4 | O=C(NO)C1(S(=O)(=O)N2CCC(COCC(F)(F)C(F)(F)C(F)(F)F)CC2)CCOCC1 [Example 377] | > 10 | > 10
5 | O=C(NO)C1(S(=O)(=O)N2CCC(COCC(F)(F)C(F)(F)C(F)(F)C(F)F)CC2)CCOCC1 [Example 378] | > 10 | > 10
6 | CCCCc1ccc(-c2cnc(N3CCN(S(=O)(=O)C4(C(=O)NO)CCOCC4)CC3)s2)cc1 [Example 379] | 0.283 | > 10
7 | CCCCCc1ccc(-c2cnc(N3CCN(S(=O)(=O)C4(C(=O)NO)CCOCC4)CC3)s2)cc1 [Example 380] | 3.21 | > 10
8 | CCc1ccc(-c2cnc(N3CCN(S(=O)(=O)C4(C(=O)NO)CCOCC4)CC3)s2)cc1 [Example 381] | 0.0541 | 3.25
9 | O=C(NO)C1(S(=O)(=O)N2CCN(c3ncc(-c4cccnc4)s3)CC2)CCOCC1 [Example 382] | 0.778 | 2.69
10 | NC(=O)c1ccccc1-c1cnc(N2CCN(S(=O)(=O)C3(C(=O)NO)CCOCC3)CC2)s1 [Example 383] | > 10 | > 10
11 | N#Cc1cccc(-c2cnc(N3CCN(S(=O)(=O)C4(C(=O)NO)CCOCC4)CC3)s2)c1 [Example 384] | 0.867 | 0.266
12 | O=C(NO)C1(S(=O)(=O)N2CCC(c3ccc(OCC(F)(F)C(F)F)cc3)CC2)CCN(CCN2CCOCC2)CC1 [Example 385] | 2.93 | > 10
13 | O=C(NO)C1(S(=O)(=O)N2CCN(c3ccc(CCCC(F)(F)F)cc3F)CC2)CCOCC1 [Example 386] | > 10 | > 10
14 | O=C(NO)C1(S(=O)(=O)N2CCN(c3ncc(-c4ccccn4)s3)CC2)CCOCC1 [Example 387] | 4.55 | > 10
15 | CCCCc1ccc(C2CCN(S(=O)(=O)C3(C(=O)NO)CCNCC3)CC2)nc1 [Example 388] | > 10 | > 10
16 | O=C(NO)C1(S(=O)(=O)N2CCN(c3ccc(CCCC(F)(F)F)c(F)c3)CC2)CCOCC1 [Example 389] | 3.17 | > 10
17 | O=C(NO)C1(S(=O)(=O)N2CCC(c3ccc(-c4cccnc4)cn3)CC2)CCOCC1 [Example 390] | > 10 | 7.88
18 | O=C(NO)C1(S(=O)(=O)N2CCC(c3ccc(-c4ccccc4)cn3)CC2)CCOCC1 [Example 392] | 1.29 | 3.43
19 | O=C(NO)C1(S(=O)(=O)N2CCC(c3ccc(-c4cccs4)cn3)CC2)CCOCC1 [Example 394] | 0.931 | 2.75
20 | O=C(NO)C1(S(=O)(=O)N2CCC(c3ccc(-c4ccc(C(F)(F)F)cc4)cn3)CC2)CCOCC1 [Example 395] | 1.76 | > 10
21 | CCCCc1ccc(C2CCN(S(=O)(=O)C3(C(=O)NO)CCN(CC)CC3)CC2)nc1 [Example 396] | 7.65 | > 10
